In patent US8952024B2, “Herbicidal pyrimidone derivatives” (E I du Pont de Nemours and Company, priority 2009, dated 2015):

Tests used:
Type in all cases: in vivo
[1] = system: velvetleaf (Abutilon theophrasti); test: Test B pre-/postemergence plant response
Summary of the method: (§1)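 Greenhouse herbicide screen. Pre- and postemergence (1- to 4-leaf) spray of compound in solvent/surfactant mixture; loam–sand soil for pre, peat/vermiculite medium for post. Visual control rating 0–100 at 13 to 15 days after treatment.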

[2] = system: Surinam grass (Brachiaria decumbens); test: Test B pre-/postemergence plant response
Summary of the method: as §1

[3] = system: blackgrass (Alopecurus myosuroides); test: Test B pre-/postemergence plant response
Summary of the method: as §1

[4] = system: downy bromegrass (Bromus tectorum); test: Test B pre-/postemergence plant response
Summary of the method: as §1

[5] = system: goosegrass (Eleusine indica); test: Test B pre-/postemergence plant response
Summary of the method: as §1

[6] = system: wheat (Triticum aestivum); test: Test B pre-/postemergence plant response
Summary of the method: as §1

[7] = system: large crabgrass (Digitaria sanguinalis); test: Test B pre-/postemergence plant response
Summary of the method: as §1

[8] = system: woolly cupgrass (Eriochloa villosa); test: Test B pre-/postemergence plant response
Summary of the method: as §1

[9] = system: Italian ryegrass (Lolium multiflorum); test: Test B pre-/postemergence plant response
Summary of the method: as §1

[10] = system: yellow nutsedge (Cyperus esculentus); test: Test B pre-/postemergence plant response
Summary of the method: as §1

[11] = system: morningglory (Ipomoea coccinea); test: Test B pre-/postemergence plant response
Summary of the method: as §1

[12] = system: pigweed (Amaranthus retroflexus); test: Test A pre-/postemergence plant response
Summary of the method: (§2)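 Each species was treated preemergence via directed soil spray and postemergence at the one- to two-leaf stage, with compounds formulated in a non-phytotoxic solvent plus surfactant. Visual injury relative to untreated controls was rated after about ten days on a 0–100 scale.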

[13] = system: barnyardgrass (Echinochloa crus-galli); test: Test A pre-/postemergence plant response
Summary of the method: as §2

[14] = 250 g ai/ha, Preemergence, 0 to 100 scale
[15] = Postemergence, 62 g ai/ha, scale 0 (no effect) to 100 (complete control), 13 to 15 days
[16] = Postemergence, 125 g ai/ha, visual rating after 13 to 15 days, scale 0 (no effect) to 100 (complete control)
[17] = Preemergence, 31 g ai/ha, scale 0 to 100 (0 no effect, 100 complete control)
[18] = Preemergence, 125 g ai/ha, 0 to 100 scale
[19] = Postemergence, 31 g ai/ha, scale 0 to 100 (0 no effect, 100 complete control)
[20] = Postemergence, 250 g ai/ha, scale 0 to 100
[21] = Preemergence, 62 g ai/ha, scale 0 to 100, 0 no effect, 100 complete control
[22] = Postemergence, 125 g ai/ha, visual injury, 0 to 100 scale (0 no effect, 100 complete control), approx. ten days
[23] = Postemergence, 500 g ai/ha, 0 to 100 scale, 0 = no effect, 100 = complete control, approx. ten days
[24] = Preemergence, 125 g ai/ha, 0 to 100 scale, 0 = no effect, 100 = complete control
[25] = Preemergence, 500 g ai/ha, visual injury, 0 to 100 scale (0 no effect, 100 complete control), approx. ten days
[26] = 62 g ai/ha, postemergence, 0 is no effect, 100 is complete control, 13 to 15 days
[27] = Postemergence, 31 g ai/ha, 0 to 100 scale (0 no effect, 100 complete control)
[28] = Postemergence, 125 g ai/ha, scale 0 to 100 (0 no effect, 100 complete control)
[29] = Postemergence, 250 g ai/ha, scale 0 to 100 (0 no effect, 100 complete control), 13 to 15 days
[30] = Postemergence, 125 g ai/ha, 0 to 100 scale where 0 is no effect and 100 is complete control

With `Cc1cc(F)ccc1-n1c(-c2ccccc2)ncc(C(=O)C2=C(O)CCCC2=O)c1=O` [Compound 48] the “Plant response rating, Velvetleaf” value [1, 14] was 100, the “Plant response rating, Velvetleaf” value [1, 15] was 85 and the “Plant response rating, Velvetleaf” value [1, 16] was 98. For the same compound, the “Plant response rating, Velvetleaf” value [1, 17] was 75, the “Velvetleaf plant response rating” value [1, 18] was 100 and the “Plant response rating, Surinam Grass” value [2, 14] was 100. The “Plant response rating, Surinam Grass” value [2, 15] was 85, the “Plant response rating, Surinam Grass” value [2, 16] was 95 and the “Plant response rating, Surinam Grass” value [2, 17] was 80. The “Surinam Grass plant response rating” value [2, 18] was 100, the “Plant response rating, Blackgrass” value [3, 14] was 5 and the “Plant response rating, Blackgrass” value [3, 19] was 0. For the same compound, the “Plant response rating, Blackgrass” value [3, 15] was 5, the “Plant response rating, Blackgrass” value [3, 16] was 20 and the “Blackgrass plant response rating” value [3, 20] was 30. The “Plant response rating, Blackgrass” value [3, 17] was 0, the “Plant response rating, Blackgrass” value [3, 21] was 0 and the “Blackgrass plant response rating” value [3, 18] was 0. For the same compound, the “Plant response rating, Bromegrass, Downy” value [4, 14] was 45, the “Plant response rating, Bromegrass, Downy” value [4, 19] was 10 and the “Plant response rating, Bromegrass, Downy” value [4, 15] was 25. The “Plant response rating, Bromegrass, Downy” value [4, 16] was 50, the “Bromegrass, Downy plant response rating” value [4, 20] was 70 and the “Plant response rating, Bromegrass, Downy” value [4, 17] was 0. For the same compound, the “Plant response rating, Bromegrass, Downy” value [4, 21] was 0, the “Bromegrass, Downy plant response rating” value [4, 18] was 0 and the “Plant response rating, Goosegrass” value [5, 14] was 100. For the same compound, the “Plant response rating, Goosegrass” value [5, 15] was 85, the “Plant response rating, Goosegrass” value [5, 16] was 95 and the “Goosegrass plant response rating” value [5, 20] was 98. For the same compound, the “Plant response rating, Goosegrass” value [5, 17] was 98, the “Goosegrass plant response rating” value [5, 18] was 100 and the “Plant response rating, Wheat” value [6, 14] was 0. For the same compound, the “Plant response rating, Wheat” value [6, 15] was 0, the “Plant response rating, Wheat” value [6, 16] was 10 and the “Plant response rating, Wheat” value [6, 17] was 0. For the same compound, the “Wheat plant response rating” value [6, 18] was 0, the “Plant response rating, Crabgrass, Large” value [7, 14] was 100 and the “Plant response rating, Crabgrass, Large” value [7, 19] was 85. For the same compound, the “Plant response rating, Crabgrass, Large” value [7, 15] was 85, the “Plant response rating, Crabgrass, Large” value [7, 16] was 95 and the “Crabgrass, Large plant response rating” value [7, 20] was 95. The “Plant response rating, Crabgrass, Large” value [7, 17] was 75, the “Plant response rating, Crabgrass, Large” value [7, 21] was 90 and the “Crabgrass, Large plant response rating” value [7, 18] was 100. For the same compound, the “Plant response rating, Cupgrass, Woolly” value [8, 14] was 95, the “Plant response rating, Cupgrass, Woolly” value [8, 19] was 80 and the “Plant response rating, Cupgrass, Woolly” value [8, 15] was 80. For the same compound, the “Plant response rating, Cupgrass, Woolly” value [8, 16] was 90, the “Cupgrass, Woolly plant response rating” value [8, 20] was 95 and the “Plant response rating, Cupgrass, Woolly” value [8, 17] was 10. For the same compound, the “Plant response rating, Cupgrass, Woolly” value [8, 21] was 10, the “Cupgrass, Woolly plant response rating” value [8, 18] was 75 and the “Plant response rating, Ryegrass, Italian” value [9, 14] was 0. The “Plant response rating, Ryegrass, Italian” value [9, 15] was 5, the “Plant response rating, Ryegrass, Italian” value [9, 16] was 30 and the “Plant response rating, Ryegrass, Italian” value [9, 17] was 0. The “Ryegrass, Italian plant response rating” value [9, 18] was 0, the “Plant response rating, Nutsedge, Yellow” value [10, 14] was 90 and the “Plant response rating, Nutsedge, Yellow” value [10, 15] was 45. For the same compound, the “Plant response rating, Nutsedge, Yellow” value [10, 16] was 60, the “Plant response rating, Nutsedge, Yellow” value [10, 17] was 20 and the “Nutsedge, Yellow plant response rating” value [10, 18] was 85. For the same compound, the “Plant response rating, Morningglory” value [11, 14] was 100, the “Plant response rating, Morningglory” value [11, 15] was 70 and the “Plant response rating, Morningglory” value [11, 16] was 80. The “Plant response rating, Morningglory” value [11, 17] was 0, the “Plant response rating, Morningglory” value [11, 21] was 100 and the “Morningglory plant response rating” value [11, 18] was 100. For the same compound, the “Pigweed plant response rating” value [12, 22] was 100, the “Plant response rating, Pigweed” value [12, 23] was 100 and the “Plant response rating, Pigweed” value [12, 24] was 90. The “Plant response rating, Pigweed” value [12, 25] was 100, the “Barnyardgrass plant response rating” value [13, 22] was 80 and the “Plant response rating, Barnyardgrass” value [13, 23] was 90. For the same compound, the “Plant response rating, Barnyardgrass” value [13, 24] was 20 and the “Plant response rating, Barnyardgrass” value [13, 25] was 100.
In the case of `O=C1CCCC(O)=C1C(=O)c1cnc(-c2ccccc2)n(C2CCCCCC2)c1=O` [Compound 130], the “Velvetleaf plant response rating (0 to 100 scale)” value [1, 26] is reported as 95, the “Plant response rating, Velvetleaf” value [1, 27] is reported as 95 and the “Plant response rating, Velvetleaf” value [1, 28] is reported as 98. The “Plant response rating, Velvetleaf” value [1, 29] was 100, the “Surinam Grass plant response rating (0 to 100 scale)” value [2, 26] was 80 and the “Plant response rating, Surinam Grass” value [2, 27] was 80. The “Plant response rating, Surinam Grass” value [2, 28] was 80, the “Plant response rating, Surinam Grass” value [2, 29] was 90 and the “Blackgrass plant response rating (0 to 100 scale)” value [3, 26] was 5. The “Plant response rating, Blackgrass” value [3, 27] was 0, the “Plant response rating, Blackgrass” value [3, 28] was 5 and the “Plant response rating, Blackgrass” value [3, 29] was 5. For the same compound, the “Bromegrass, Downy plant response rating (0 to 100 scale)” value [4, 26] was 15, the “Plant response rating, Bromegrass, Downy” value [4, 27] was 10 and the “Plant response rating, Bromegrass, Downy” value [4, 28] was 35. For the same compound, the “Plant response rating, Bromegrass, Downy” value [4, 29] was 40, the “Goosegrass plant response rating (0 to 100 scale)” value [5, 26] was 85 and the “Plant response rating, Goosegrass” value [5, 27] was 85. For the same compound, the “Plant response rating, Goosegrass” value [5, 28] was 95, the “Plant response rating, Goosegrass” value [5, 29] was 95 and the “Wheat plant response rating (0 to 100 scale)” value [6, 26] was 5. For the same compound, the “Plant response rating, Wheat” value [6, 27] was 5, the “Plant response rating, Wheat” value [6, 28] was 5 and the “Plant response rating, Wheat” value [6, 29] was 10. The “Crabgrass, Large plant response rating (0 to 100 scale)” value [7, 26] was 85, the “Plant response rating, Crabgrass, Large” value [7, 27] was 85 and the “Plant response rating, Crabgrass, Large” value [7, 28] was 95. The “Plant response rating, Crabgrass, Large” value [7, 29] was 100, the “Cupgrass, Woolly plant response rating (0 to 100 scale)” value [8, 26] was 85 and the “Plant response rating, Cupgrass, Woolly” value [8, 27] was 80. For the same compound, the “Plant response rating, Cupgrass, Woolly” value [8, 28] was 85, the “Plant response rating, Cupgrass, Woolly” value [8, 29] was 90 and the “Ryegrass, Italian plant response rating (0 to 100 scale)” value [9, 26] was 0. For the same compound, the “Plant response rating, Ryegrass, Italian” value [9, 27] was 0, the “Plant response rating, Ryegrass, Italian” value [9, 28] was 0 and the “Plant response rating, Ryegrass, Italian” value [9, 29] was 5. The “Nutsedge, Yellow plant response rating (0 to 100 scale)” value [10, 26] was 20, the “Plant response rating, Nutsedge, Yellow” value [10, 27] was 10 and the “Plant response rating, Nutsedge, Yellow” value [10, 28] was 35. For the same compound, the “Plant response rating, Nutsedge, Yellow” value [10, 29] was 40, the “Morningglory plant response rating (0 to 100 scale)” value [11, 26] was 95 and the “Plant response rating, Morningglory” value [11, 27] was 95. For the same compound, the “Plant response rating, Morningglory” value [11, 28] was 100, the “Plant response rating, Morningglory” value [11, 29] was 100 and the “Plant response rating, Pigweed” value [12, 30] was 100. For the same compound, the “Plant response rating, Pigweed” value [12, 23] was 100, the “Plant response rating, Pigweed” value [12, 24] was 90 and the “Plant response rating, Pigweed” value [12, 25] was 100. For the same compound, the “Plant response rating, Barnyardgrass” value [13, 30] was 100, the “Plant response rating, Barnyardgrass” value [13, 23] was 100 and the “Plant response rating, Barnyardgrass” value [13, 24] was 20. The “Plant response rating, Barnyardgrass” value [13, 25] was 90.
